Among the data in PubChem BioAssay (NCI) are TGI and GI50 values, retold here.

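Cells were grown in 96-well plates and exposed to each compound for 48 hours at five concentrations; endpoints were interpolated linearly between bracketing concentrations, or set to the highest concentration if not reached. Here, GI50 denotes the concentration required for 50% inhibition of growth. TGI: total growth inhibition.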 Where only a bound is given, the exact number is not on record here.

For one assay, the system named is SK-OV-3 ovarian. The experiment in a line: NCI tumour cell line growth inhibition, 48 h.
Compound `CC(=O)CC(=O)OC1CC(C)CCC1C(C)C` (stereo not given) registered a TGI greater than 100 µM.

On to `CP1(=O)CCCCC1`, for which the TGI is greater than 100 µM.

Consider `Cc1ccc(S(=O)(=O)OC2CSS(=O)CC2OS(=O)(=O)c2ccc(C)cc2)cc1` (stereo not given), for which the TGI came out at 38.5 µM.

For the compound `COc1cc2c(cc1C)NC(=O)/C2=C/c1ccccn1`, the GI50 is 3.41 µM and the TGI was greater than 100 µM.

With `O=[N+]([O-])c1cc(C(F)(F)F)cc([N+](=O)[O-])c1CCl`, the TGI worked out at 14.6 µM.

Turning to `Nc1ccnc(=O)[nH]1`, the TGI was greater than 100 µM.

The compound `COC(=O)/C(C)=C(/CCC1(C)OCCO1)O[Si](C)(C)C` showed a TGI greater than 100 µM.

`CCOC(=O)N1CCN(C=S)CC1` gave a TGI greater than 100 µM.

For `CCc1cc(C(=O)OC)cn1C(=N)c1ccc(Cl)cc1`, the TGI was greater than 100 µM.

Regarding `Cc1cc(=O)n(-c2ccccc2C)c(C)n1`, the TGI was greater than 100 µM.

`COc1ccc(Br)c(N/N=C2\CCCNC2=O)c1` gave a TGI greater than 100 µM.

In the case of `COc1cc2c(c(OC)c1OC)-c1ccc(SC)c(=O)cc1C(CO)C2` (stereo not given), the GI50 was less than 0.01 µM and the TGI stood at 31.8 µM.

Turning to `Cc1ccc2nc(NC(=O)C(=O)C(C#N)c3nc4ccccc4s3)sc2c1` (stereo not given), the TGI is greater than 100 µM.

In the case of `CC(C)C1CC[C@@H](C)C[C@@]1(O)CC(N)=O` (stereo not given in full), the TGI was greater than 100 µM.

For the compound `COc1ccc(-c2c[nH]c(C(=O)O)c2-c2cc(OC)c(OC)c(OC)c2)cc1`, the GI50 was 5.82 µM and the TGI was greater than 100 µM.

Take `C=C(C)C(=O)O[C@H]1CC(=C)[C@@H]2C[C@H](O)[C@](O)(CCl)[C@@H]2[C@H]2OC(=O)C(=C)[C@@H]21`: the GI50 is 16.2 µM and the TGI was 30.2 µM.

Consider `COc1cnc2c(c1)C(=O)c1c-2n(CCCn2ccnc2)c(=O)c2cc(F)ccc12`, for which the GI50 is 0.0162 µM and the TGI came out at 0.327 µM.

In the case of `O=C([CH-]C(=O)c1ccccc1)c1ccccc1.O=C([CH-]C(=O)c1ccccc1)c1ccccc1.[La+3].[OH-].[OH3+]`, the GI50 was 21.3 µM and the TGI is 69.8 µM.

Turning to `CCC[CH2][Sn]1([CH2]CCC)[O]C(=O)c2cccnc2[O]1`, the GI50 is 10 µM and the TGI amounted to 22.1 µM.

For the compound `CCOc1ccccc1N1C(=O)C(=O)C(c2nc3ccccc3o2)C(=O)C1=O`, the TGI is greater than 100 µM.

In turn, `CCS(CC)(CC)CC1CCCC2=CCC(P(=O)(c3ccccc3)c3ccccc3)CC21` (stereo not given) returned a TGI of 28.7 µM.

Turning to `COc1ccc2n[se]nc2c1`, the TGI was greater than 100 µM.

As for `Cn1cc(C(=O)NCCC(=N)N)cc1NC(=O)C1=[N+](C)C=C(NC(=O)c2cccc(C(=O)NC3=CC(C(=O)Nc4cc(C(=O)NCCC(=N)N)cn4C)=[N+](C)C3)c2)C1`, the TGI was greater than 100 µM.

The test system of a further assay is CAKI-1 renal. The experiment in a line: NCI tumour cell line growth inhibition, 48 h.
Compound `CCN(CC)c1c(C(=O)/C=C/c2ccc(OC)cc2)c(-c2ccccc2)nn(C)c1=O` had a TGI greater than 100 µM.

For the compound `Oc1ccccc1/C=C/c1csnn1`, the TGI is greater than 100 µM.

Regarding `CC(=O)CC(=O)OC1CC(C)CCC1C(C)C` (stereo not given), the TGI was greater than 100 µM.

Take `CP1(=O)CCCCC1`: the TGI was greater than 100 µM.

For the compound `Cc1ccc(S(=O)(=O)OC2CSS(=O)CC2OS(=O)(=O)c2ccc(C)cc2)cc1` (stereo not given), the TGI is 25.7 µM.

`COc1cc2c(cc1C)NC(=O)/C2=C/c1ccccn1`: the GI50 was 2.72 µM and the TGI amounted to 9.59 µM.

`O=[N+]([O-])c1cc(C(F)(F)F)cc([N+](=O)[O-])c1CCl`: the TGI is 7.37 µM.

For `Nc1ccnc(=O)[nH]1`, the TGI is greater than 100 µM.

As to `COC(=O)/C(C)=C(/CCC1(C)OCCO1)O[Si](C)(C)C`, the TGI is greater than 100 µM.

On to `CCc1cc(C(=O)OC)cn1C(=N)c1ccc(Cl)cc1`, for which the TGI was greater than 100 µM.

`Cc1cc(=O)n(-c2ccccc2C)c(C)n1` gave a TGI greater than 100 µM.

Consider `Oc1c(C(Nc2cccc3cccnc23)c2ccccc2)ccc2cccnc12` (stereo not given), for which the TGI was greater than 100 µM.

Consider `COc1ccc(Br)c(N/N=C2\CCCNC2=O)c1`, for which the TGI amounted to 91.8 µM.

On to `COc1cc2c(c(OC)c1OC)-c1ccc(SC)c(=O)cc1C(CO)C2` (stereo not given), for which the GI50 is less than 0.01 µM and the TGI was greater than 100 µM.

For `Cc1ccc2nc(NC(=O)C(=O)C(C#N)c3nc4ccccc4s3)sc2c1` (stereo not given), the TGI amounted to 94.3 µM.

Regarding `CC(C)C1CC[C@@H](C)C[C@@]1(O)CC(N)=O` (stereo not given in full), the TGI is greater than 100 µM.

In the case of `COc1ccc(-c2c[nH]c(C(=O)O)c2-c2cc(OC)c(OC)c(OC)c2)cc1`, the GI50 was 3.66 µM and the TGI is greater than 100 µM.

Regarding `C=C(C)C(=O)O[C@H]1CC(=C)[C@@H]2C[C@H](O)[C@](O)(CCl)[C@@H]2[C@H]2OC(=O)C(=C)[C@@H]21`, the GI50 is 1.94 µM and the TGI came to 3.45 µM.

`O=C([CH-]C(=O)c1ccccc1)c1ccccc1.O=C([CH-]C(=O)c1ccccc1)c1ccccc1.[La+3].[OH-].[OH3+]`: the GI50 was 17.4 µM and the TGI was found to be 56.8 µM.

Consider `CCC[CH2][Sn]1([CH2]CCC)[O]C(=O)c2cccnc2[O]1`, for which the GI50 was 0.74 µM and the TGI worked out at 3.93 µM.

Compound `COC1CC(OS(=O)(=O)c2ccc([N+](=O)[O-])cc2)C(OC(=O)c2ccccc2)C(C)O1` (stereo not given) had a TGI greater than 100 µM.

`CCOc1ccccc1N1C(=O)C(=O)C(c2nc3ccccc3o2)C(=O)C1=O` showed a TGI greater than 100 µM.

Turning to `C=C1C(=O)O[C@H]2[C@H]1CC/C(COC(=O)NCc1cn(C)c3ccccc13)=C\CC[C@@]1(C)O[C@@H]21`, the GI50 is 1.32 µM and the TGI came to 2.64 µM.

Consider `CCS(CC)(CC)CC1CCCC2=CCC(P(=O)(c3ccccc3)c3ccccc3)CC21` (stereo not given), for which the TGI was found to be 24.4 µM.

`COc1ccc2n[se]nc2c1` had a TGI greater than 100 µM.

Turning to `Cn1cc(C(=O)NCCC(=N)N)cc1NC(=O)C1=[N+](C)C=C(NC(=O)c2cccc(C(=O)NC3=CC(C(=O)Nc4cc(C(=O)NCCC(=N)N)cn4C)=[N+](C)C3)c2)C1`, the TGI is greater than 100 µM.

The next assay deals with T-47D breast. The experiment in a line: NCI tumour cell line growth inhibition, 48 h.
In the case of `COc1cc2c(cc1C)NC(=O)/C2=C/c1ccccn1`, the GI50 is 19.3 µM and the TGI is greater than 100 µM.
